Source: ChEMBL document CHEMBL1152031, “Substituted N,N-diphenyl ureas as potent inhibitors of acyl-CoA:Cholesterol acyltransferase (ACAT)” (Bioorg Med Chem Lett, 1993)

Columns and labels:
O-acyltransferase = O-acyltransferase (Oryctolagus cuniculus, UniProt G1SFD9); assay: In vitro inhibition of intestinal Acyl coenzyme A:cholesterol acyltransferase in cholesterol-fed rabbits.
Rattus norvegicus = assay: Tested in vivo for the ability to lower the total plasma cholesterol (TC) in an chronic peanut oil/cholesterol/cholic Acid (APCC) model at the dose of 30 mg/kg; type: functional

Chain of O-acyltransferase (G1SFD9 1-524): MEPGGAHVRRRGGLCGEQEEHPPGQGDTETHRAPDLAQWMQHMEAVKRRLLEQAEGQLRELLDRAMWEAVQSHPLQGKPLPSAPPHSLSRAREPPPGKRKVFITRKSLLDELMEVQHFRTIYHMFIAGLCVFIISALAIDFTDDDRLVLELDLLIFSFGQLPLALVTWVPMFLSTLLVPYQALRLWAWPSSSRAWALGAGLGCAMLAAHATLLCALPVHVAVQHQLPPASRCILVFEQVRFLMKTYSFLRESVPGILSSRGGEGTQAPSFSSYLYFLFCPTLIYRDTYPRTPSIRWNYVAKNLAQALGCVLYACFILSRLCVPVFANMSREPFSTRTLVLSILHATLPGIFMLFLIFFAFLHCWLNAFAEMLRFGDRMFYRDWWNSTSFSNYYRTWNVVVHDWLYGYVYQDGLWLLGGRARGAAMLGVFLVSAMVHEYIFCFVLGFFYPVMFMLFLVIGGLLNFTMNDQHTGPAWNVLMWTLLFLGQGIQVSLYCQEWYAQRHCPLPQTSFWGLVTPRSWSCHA

| Structure (SMILES) | IC50 (O-acyltransferase) [nM] | Delta TC (Rattus norvegicus) [%] |
| --- | --- | --- |
| CCCCCCCc1ccc(NC(=O)Nc2c(C(C)C)cccc2C(C)C)cc1 | 19 | -21 |
| CCCCCCCCCCc1ccc(NC(=O)Nc2c(C(C)C)cccc2C(C)C)cc1 | 13 | -25 |
| CCCCCCc1ccc(NC(=O)Nc2c(C(C)C)cccc2C(C)C)cc1 | 26 | -18 |
| CCCCCCCCCc1ccc(NC(=O)Nc2c(C(C)C)cccc2C(C)C)cc1 | 9 | -8 |
| CCCCCCCCCCCCCc1ccc(NC(=O)Nc2c(C(C)C)cccc2C(C)C)cc1 | 11 | -70 |
| CCCc1ccc(NC(=O)Nc2c(C(C)C)cccc2C(C)C)cc1 | 38 | – |
| CC(C)c1ccc(NC(=O)Nc2c(C(C)C)cccc2C(C)C)cc1 | 66 | – |
| CCCCCc1ccc(NC(=O)Nc2c(C(C)C)cccc2C(C)C)cc1 | 32 | – |
| CCCCc1ccc(NC(=O)Nc2c(C(C)C)cccc2C(C)C)cc1 | 29 | -12 |
| CCCCCCCCCCCCc1ccc(NC(=O)Nc2c(C(C)C)cccc2C(C)C)cc1 | 15 | -47 |
| CCCCCCCN(Cc1ccc(CC(C)(C)C)cc1)C(=O)Nc1ccc(F)cc1F [CL-277082] | – | -54 |
| CC(C)c1cccc(C(C)C)c1NC(=O)Nc1ccc(C(C)(C)C)cc1 | 168 | -10 |
| CCCCCCCCc1ccc(NC(=O)Nc2c(C(C)C)cccc2C(C)C)cc1 | 11 | -29 |
| CCc1ccc(NC(=O)Nc2c(C(C)C)cccc2C(C)C)cc1 | 100 | – |
| CCCCCCCCCCCc1ccc(NC(=O)Nc2c(C(C)C)cccc2C(C)C)cc1 | 9 | -29 |
| CCCCCCCCCCCCCCc1ccc(NC(=O)Nc2c(C(C)C)cccc2C(C)C)cc1 | 500 | -25 |
| Cc1ccc(NC(=O)Nc2c(C(C)C)cccc2C(C)C)cc1 | 250 | – |
